The nature of series [1]: Plasma half-life in male New Zealand white rabbits after i.v. administration at 2.0 mg/kg. Format: ADME, organism-based, Oryctolagus cuniculus. Conditions: rabbit, iv. Also noted: dose 2 mg/kg, route intravenous.
Series [2] can be described thus: Mean retention time in male New Zealand white rabbits after administration via an indwelling catheter in an ear vein at 4.9 mg/kg. In kind it is ADME, organism-based, Oryctolagus cuniculus. Also noted: dose 4.9 mg/kg. The settings on record: rabbit, in vivo, iv.
Series [3] is described as follows: Mean retention time in male New Zealand white rabbits after i.v. administration at 2.0 mg/kg. In kind it is ADME, organism-based, Oryctolagus cuniculus. Also noted: dose 2 mg/kg, route intravenous. The settings on record: rabbit, in vivo, iv.
A short description of series [4]: Plasma half-life in male New Zealand white rabbits after administration via an indwelling catheter in an ear vein at 4.9 mg/kg. Also noted: dose 4.9 mg/kg. The settings on record: rabbit, iv. In kind it is ADME, organism-based, Oryctolagus cuniculus.
Series [5] in a line: Clearance in male New Zealand white rabbits after administration via an indwelling catheter in an ear vein at 4.9 mg/kg. Format: ADME, organism-based, Oryctolagus cuniculus. Also noted: dose 4.9 mg/kg. The settings on record: rabbit, in vivo, iv.
Series [6] in a line: Clearance in male New Zealand white rabbits after i.v. administration at 2.0 mg/kg. Format: ADME, organism-based, Oryctolagus cuniculus. On the set-up: dose 2 mg/kg, route intravenous. The settings on record: rabbit, in vivo, iv.
Another series concerns the target T1, Coagulation factor VII (Homo sapiens, UniProt P08709).
T1 sequence (P08709 whole entry): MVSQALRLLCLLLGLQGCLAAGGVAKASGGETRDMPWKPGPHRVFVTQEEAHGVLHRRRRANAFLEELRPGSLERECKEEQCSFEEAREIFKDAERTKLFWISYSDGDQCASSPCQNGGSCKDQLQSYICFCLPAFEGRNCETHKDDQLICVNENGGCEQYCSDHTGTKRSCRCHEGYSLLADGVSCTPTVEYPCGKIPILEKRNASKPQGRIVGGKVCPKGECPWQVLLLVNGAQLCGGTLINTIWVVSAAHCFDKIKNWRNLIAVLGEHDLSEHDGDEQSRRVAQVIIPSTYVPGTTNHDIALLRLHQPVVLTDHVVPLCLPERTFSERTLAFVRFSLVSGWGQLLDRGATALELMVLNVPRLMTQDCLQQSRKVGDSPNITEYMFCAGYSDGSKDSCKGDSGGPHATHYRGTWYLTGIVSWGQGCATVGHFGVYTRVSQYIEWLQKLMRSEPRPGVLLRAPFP
Nature of the series: Inhibition of amino terminally biotinylated E-76 peptide binding to immobilized fVIIa.

Another series has as its target Albumin (Homo sapiens, UniProt P02768). Nature of the series: In vitro binding affinity for human serum albumin. Also noted: unit not given here.

We go through one molecule from ChEMBL document CHEMBL1135206, “Albumin affinity tags increase peptide half-life in vivo” (Bioorg Med Chem Lett, 2002).

Molecules are shown by their SMILES. pIC50: −log10 of the molar value. Where a SMILES comes first, the peptide text is derived from it. Bridges are numbered along the chain shown (N, C = ends). The star is where a group is joined. X1 = CC(C)Cc1ccc([C@@H](C)C(=O)*)cc1

Sequence of Albumin (P02768 whole entry): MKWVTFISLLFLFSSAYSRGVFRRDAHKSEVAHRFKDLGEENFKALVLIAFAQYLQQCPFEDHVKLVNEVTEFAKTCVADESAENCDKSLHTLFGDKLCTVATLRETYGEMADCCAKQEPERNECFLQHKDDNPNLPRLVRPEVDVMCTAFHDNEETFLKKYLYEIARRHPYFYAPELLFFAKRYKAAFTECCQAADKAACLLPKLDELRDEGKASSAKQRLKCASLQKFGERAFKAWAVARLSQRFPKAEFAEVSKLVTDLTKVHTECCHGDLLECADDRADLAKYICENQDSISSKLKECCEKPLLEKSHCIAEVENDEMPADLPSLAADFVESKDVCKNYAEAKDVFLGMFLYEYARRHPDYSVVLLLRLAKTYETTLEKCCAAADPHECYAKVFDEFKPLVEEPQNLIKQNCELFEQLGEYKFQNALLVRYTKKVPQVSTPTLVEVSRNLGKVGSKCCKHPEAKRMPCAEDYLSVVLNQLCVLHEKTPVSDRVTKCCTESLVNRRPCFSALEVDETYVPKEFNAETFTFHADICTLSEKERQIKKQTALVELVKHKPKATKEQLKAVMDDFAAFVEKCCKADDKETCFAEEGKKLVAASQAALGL

Regarding `CC[C@H](C)[C@@H]1NC(=O)[C@H](CCCN=C(N)N)NC(=O)[C@@H]2CCCN2C(=O)[C@H](CC(N)=O)NC(=O)[C@H](CC(=O)O)NC(=O)[C@@H](NC(=O)[C@H](CC(C)C)NC(=O)[C@H](C)NC(=O)[C@H](C)c2ccc(CC(C)C)cc2)CSSC[C@@H](C(=O)N[C@@H](CCC(N)=O)C(=O)N[C@@H](Cc2ccccc2)C(=O)N[C@H](C(=O)N[C@@H](CCC(=O)O)C(=O)NCC(N)=O)C(C)C)NC(=O)[C@H](Cc2ccc(O)cc2)NC(=O)[C@H](Cc2c[nH]c3ccccc23)NC(=O)[C@H](CCCN=C(N)N)NC(=O)[C@H](CC(=O)O)NC1=O` (X1-ALCDNPRIDRWYCQFVEG-NH2; disulfide 3-13), the results for the half-life in series [1] and in series [4] were 17 min and 24 min, respectively. In addition, the MRT in series [2] is 33 min; in series [3], 19 min. In addition, the results for the clearance in series [5] and in series [6] were 1.5 mL/min/kg and 1.8 mL/min/kg, respectively. On Coagulation factor VII, the pIC50 is 7.84. This molecule had a Binding affinity at Albumin of 0.76.

By half-life is commonly meant the time in which the quantity being followed falls by half. By MRT is commonly meant the average time that molecules of a dose stay in the body. As usually defined, the clearance is a measure of how efficiently the substance is removed, as volume per time. One may read the pIC50 as the IC50 on a negative log10 scale, so that one unit is a factor of ten.
